From patent US8158623B2, “Heptacyclic compounds and the pharmaceutical uses thereof for preventing and treating diabetes and metabolic syndrome” (Shanghai Institute of Materia Medica Chinese Academy of …, priority 2007, dated 2012)
“Also recorded” adds a separate entry of the source.

Columns and labels:
[1] = system: Acetyl CoA Carboxylase (ACC); experiment: Phosphorylation of ACC in HepG2 cell (Western blot); type: cell-based, Human; conditions: HepG2, 50 uM, 5 minutes, P<0.01 or P<0.05
Description: (§1) Human hepatoma carcinoma cell strain (HepG2, purchased from the cell bank of Shanghai Institute of Cell Biology of Chinese Academy) was used. The Human hepatoma carcinoma cells were passaged by 0.1% pancreatin/0.02% EDTA digestion, and cultured in a incubator at 37° C. using MEM culture medium containing 10% FBS, under 5% CO2/95%.
(§2) HepG2 cells were cultured in 6-well plates for 48 hours until 70%-80% confluence. Serum starvation was started by changing medium with MEM containing 0.5% BSA. After starvation for 6 hours, cells were treated with the compounds (final concentration of 50 uM, containing 0.25% DMSO) for 5 minutes. The culture medium was discarded, and cells were harvested and washed for twice with pre-cooled PBS. The washing liquid was discarded, and any residual PBS was blotted dry. DMSO without heptacyclic compounds was used as control.
(§3) Extraction of total cellular protein: 150 μl/well homogenizing buffer (137 mM NaCl, 2.7 mM KCl, 1 mM MgCl2, 0.5 mM Na3VO4, 1% Triton X-100, 10% Glycerol, 20 mM Tris-HCl pH 7.8, 1 ug/ml Leupeptin, 0.2 mM PMSF, 10 mM NaF, 1 ug/ml Aprotinin, 1 mM EDTA, 1 mM DTT, 5 mM Sodium pyrophosphate, 1 mM Benzamidine) was added. Cells were collected into a 1.5 ml centrifuge tube using cell scraper. Cells were homogenized using sonicator (5 W of power) for 2 times (3 seconds per time), and shaken on a shaker for 1 hour. Supernatant (i.e., total cellular protein) was collected by centrifuging at 14000 rpm for 15 min at 4° C., and stored at −70° C. until use. After the protein concentration was determined by Bradford method, the supernatant was formulated as the loading sample with final concentration of 0.6 mg/ml. The whole preparation process was performed at 4° C.
(§4) Protein Electrophoresis: After being treated at 95° C. for 5 min, the loading sample was loaded (15 μg protein/lane). The protein was separated on 7.5% SDS-acrylamide gel for 1-2 hours under the voltage of 80-120 V.
(§5) Electrotransferring the protein and blocking the membrane: After electrophoresis was finished, the protein was transferred to PVDF membrane using semi-dry transferring slot based on 0.8 mA/cm^2 membrane area under the electric current of 80 mA for 2 hours. After that, the membrane was shaken for 2 hours with 7.5% skim milk/TTBS to block the membrane.
(§6) Antigen-antibody reaction: After the blocking process was finished, the membrane was incubated with primary antibody (antibody against phosphorylated ACC (P-ACC) and antibody against phosphorylated AMPK (P-AMPK), all purchased from Cell signaling (USA), with the working concentration of 1:1000) overnight at 4° C. The membrane was removed, and the primary antibody was recovered. The membrane was washed 5 times, each for 10 min in TTBS. The membrane was shaken for 2 hours with the secondary antibody (horseradish peroxidase-conjugated goat-anti-rabbit IgG antibody, purchased from Bio-rad (USA), with the working concentration of 1:5000) at room temperature. The secondary antibody was discarded. The membrane was washed 5 times, each for 10 min in TTBS in order to remove the unbound secondary antibody.
(§7) ECL exposure and development: Luminescent agents, ECL 1, 2, were mixed homogeneously, and incubated with the membrane for 3-5 min. The membrane was removed, wrapped in preservative film, and transferred into dark room for exposure. After exposure with X-film, the film was developed, washed, recorded and conserved.
(§8) Semi-quantitative analysis was performed through optical density scan using computer image analysis system. Grey level of the protein expression was calculated. The target grey level was divided by the grey level of internal standard, and a histogram was plotted, taking the normal group as 1 unit.

[2] = system: 3T3-L1 adipocytes; experiment: Glucose uptake in 3T3-L1 adipocytes (3H-labelled 2-deoxyglucose); type: cell-based; conditions: for Glucose uptake, Mean, Compound + Insulin Group (Control Group = 1.000): 10 μM, 2 h incubation, with insulin, relative to control without insulin; for fold induction at 10 µM: Mus musculus, 3T3-L1, 2 h incubation, baseline (without insulin), relative to control, read-out: Glucose uptake, Mean, Compound Group (Control Group = 1.000)
Description: The effect of the compounds on baseline or insulin-stimulated glucose uptake was evaluated, using the model of glucose uptake in 3T3-L1 adipocytes.
Adipose tissue is the target of glucose metabolism in vivo. The sensitivity for insulin and availability of glucose in adipose tissues are tightly associated with the insulin resistance. The transportation of glucose into adipocytes is a rate-limiting step for the glucose metabolism, and also an important indicator for evaluating the sensitivity for insulin in adipose tissue. 3T3-L1 is a kind of pre-adipocyte, and can become adipocyte after differentiated completely. Therefore, 3T3-L1 is a desirable model for the glucose transport.
Pre-adipocyte, 3T3-L1 was induced to differentiate under certain conditions. After 3T3-L1 differentiated into adipocytes, the compounds of interest with different concentrations and DMSO (used as control) can be added and incubated with the adipocytes for different periods, then the glucose uptake could be determined. For evaluating the ability for a compound to stimulate glucose uptake, the baseline and insulin-induced glucose uptake were determined, and the increase in baseline and insulin-induced glucose uptake upon treatment of the compounds as compared with control group (with 0.1% DMSO) is calculated, based on the ^3H-labelled 2-deoxyglucose inside the cells.
3T3-L1 cells purchased from Karolinska Institute (Sweden) were cultured in DMEM medium containing 10% fetal calf serum at 37° C., under 5% CO2. The cells were passaged every 3-4 days. The cells were inoculated into 12-well plate. Upon confluence, culture medium containing 0.5 mM 3-isobutyl-1-methylxanthine, 0.25 μM dexamethasone and 5 μg/ml insulin was added and cultured for 3 days. Then, the culture medium was replaced by a medium containing 5 μg/ml insulin and further cultured for 3 days. The insulin was removed, and the cells had differentiated completely into mature adipocytes after 2 days which could be used to determine the glucose uptake.
23 compounds chosen by the inventors were added into the culture medium of adipocytes in a dose of 10 μM. After incubation for 2 h, the effect of the compounds on glucose uptake in 3T3-L1 cells was observed. Culture medium without compounds was used as negative control. The control group only supplemented with insulin and the experiment group supplemented with compounds plus insulin were also employed to observe the effect of the compounds on glucose uptake.

[3] = system: AMP-Activated Protein Kinase (AMPK); experiment: Phosphorylation of AMPK in HepG2 cell (Western blot); type: cell-based, Human; conditions: HepG2, 50 uM, 5 minutes, P<0.01 or P<0.05
Description: as §1, §2, §3, §4, §5, §6, §7, §8

[4] = system: ob/ob mice; experiment: Fasting blood glucose in ob/ob mice, several heptacyclic compounds, 8 days; type: in vivo
Description: Genetic spontaneous diabetes ob/ob mice were purchased from Jackson (USA), and maintained in a SPF facility (temperature: 22-24° C., humidity: 45-80%, illumination: 150-300 Lx, 12/12-hour light/dark cycle). Fasting blood glucose was determined for 3 days continuously when the mice were 7 weeks old. The mice were grouped into the treatment group and the control group (6 animals per group) according to the results determined. The treatment groups were administered orally with compound E9, G0 and F7 (psoromic acid) (100 mg/kg), and the control group was administered orally with a solution of 0.1% Tween 80 (blank control), once daily for 8 days. Fasting blood glucose in mice was determined at the end of experiment.

[5] = oral 100 mg/kg once daily, after 8 days treatment

SMILES | Level of phosphorylation for ACC protein versus DMSO control [1] | Glucose uptake, Mean, Compound + Insulin Group (Control Group = 1.000) [2] | fold induction at 10 µM [2] | Level of phosphorylation for AMPK protein versus DMSO control [3] | Fasting Blood Glucose ([4]; before administration) [mM] | Fasting blood glucose change in words ([4]; dosed continuously for 8 days, P<0.05) | Fasting Blood Glucose [4, 5] [mM]
CCN(CC)C(=O)c1cc(OC)c(C)c2c1Oc1c(C=O)c(O)cc(C)c1C(=O)O2 [AB5, 4-Formyl-3-hydroxy-8-methoxy-1,9-dimethyl-11-oxo-11H-dibenzo[b,e][1,4]dioxepine-6-carboxylic acid diethylamide] | improved significantly | 1.755 | 1.29 | increased significantly |  |  | 
COc1cc(C(=O)NCc2ccccc2)c2c(c1C)OC(=O)c1c(C)cc(O)c(C=NCc3ccccc3)c1O2 [AB6, 4-(Benzylimino-methyl)-3-hydroxy-8-methoxy-1,9-dimethyl-11-oxo-11H-dibenzo[b,e][1,4]dioxepine-6-carboxylic acid benzylamide] | improved significantly | 1.432 | 1.14 | increased significantly |  |  | 
CCOC(=O)c1cc(OC)c(C)c2c1Oc1c(C=O)c(O)cc(C)c1C(=O)O2 [Compound A2, 4-Formyl-3-hydroxy-8-methoxy-1,9-dimethyl-11-oxo-11H-dibenzo[b,e][1,4]dioxepine-6-carboxylic acid ethyl ester] | improved significantly | 3.138 | 1.37 | significant up-regulation |  |  | 
CCCOC(=O)c1cc(OC)c(C)c2c1Oc1c(C=O)c(O)cc(C)c1C(=O)O2 [Compound A4, 4-Formyl-3-hydroxy-8-methoxy-1,9-dimethyl-11-oxo-11H-dibenzo[b,e][1,4]dioxepine-6-carboxylic acid propyl ester] | improved significantly | 3.449 | 1.18 | significant up-regulation |  |  | 
CCCCOC(=O)c1cc(OC)c(C)c2c1Oc1c(C=O)c(O)cc(C)c1C(=O)O2 [Compound A6, 4-Formyl-3-hydroxy-8-methoxy-1,9-dimethyl-11-oxo-11H-dibenzo[b,e][1,4]dioxepine-6-carboxylic acid butyl ester] | improved significantly |  |  | significant up-regulation |  |  | 
COc1cc(C(=O)O)c2c(c1C)OC(=O)c1c(C)cc(O)c(CNc3ccccc3)c1O2 [Compound B9, 3-Hydroxy-8-methoxy-1,9-dimethyl-11-oxo-4-phenylaminomethyl-11H-dibenzo[b,e][1,4]dioxepine-6-carboxylic acid] | improved significantly | 2.824 | 1.16 | increased significantly |  |  | 
COc1cc(C(=O)O)c2c(c1C)OC(=O)c1c(C)cc(O)c(CNCCn3cccc3)c1O2 [Compound C1, 3-Hydroxy-8-methoxy-1,9-dimethyl-11-oxo-4-[(2-pyrrol-1-yl-ethylamino)-methyl]-11H-dibenzo[b,e][1,4]dioxepine-6-carboxylic acid] | improved significantly | 4.059 | 1.21 | increased significantly |  |  | 
COc1cc(C(=O)O)c2c(c1C)OC(=O)c1c(C)cc(O)c(CNCCN3CCOCC3)c1O2 [Compound C7, 3-Hydroxy-8-methoxy-1,9-dimethyl-4-[(2-morpholin-4-yl-ethylamino)-methyl]-11-oxo-11H-dibenzo[b,e][1,4]dioxepine-6-carboxylic acid] | improved significantly | 3.610 | 1.22 | increased significantly |  |  | 
COc1cc(C(=O)O)c2c(c1C)OC(=O)c1c(C)cc(O)c(CO)c1O2 [Compound E9, 3-Hydroxy-4-hydroxymethyl-8-methoxy-1,9-dimethyl-11-oxo-11H-dibenzo[b,e][1,4]dioxepine-6-carboxylic acid] | improved significantly | 2.965 | 1.1 | significant up-regulation; also recorded: increased significantly | 11.99 ± 1.48 | reduced statistically significant | 8.68 ± 1.32
CN(C)C(=N)N=C(N)N [Metformin, reference compound] |  |  |  |  | 12.27 ± 2.69 |  | 8.13 ± 2.76
